Results reported in patent US12012410B2, “Substituted pyrazolo[1,5-a]pyrazines for spinal muscular atrophy” (REBORNA BIOSCIENCES, INC., priority 2018, dated 2024).

Tested on: FL-SMN mRNA (SMN transcript containing exons 7 and 8)
Experiment: Live-cell assay to measure changes in FL-SMN mRNA levels (qPCR) after exposure to the compounds
Assay type: cell-based, human
Settings: fibroblasts derived from patients SMA (GM03813); 24 hours incubation
Procedure: In this example, each test compound was administered to cultured cells, and changes in the expression levels of mRNA transcripts of SMN, i.e., FL-SMN containing exons 7 and 8 and Delta7 with exon 7 skipped, were examined using PCR.
Fibroblasts derived from patients SMA (GM03813) (Coriell Cell Repositories) were cultured with passages using DMEM (High Glucose) (Life Technologies) supplemented with 10% FBS (Life Technologies). Cells were seeded in tissue-culture-treated 96-well plates (Corning) at 1.5 or 0.5×10^4 cells/well in 100 μL of medium. The cells were incubated in 5% CO2 for 6 hours, and the medium was replaced with 100 μL of medium (with DMSO, 0.1% final concentration) containing each of the compounds given in the Examples. After additional incubation for 24 hours under the same conditions, the cells were washed once with D-PBS(—) (Wako) and 25 μL/well of the lysis solution (with gDNA Remove) contained in the SuperPrep (registered trademark) Cell Lysis & RT Kit for qPCR (Toyobo life science) was added according to the manufacturer's instructions so that the cells were lysed and the genomic DNA was degraded. Furthermore, 5 μL of the STOP solution (with RNase Inhibitor) contained in the kit was added to provide RNA-containing solutions. Six microliters of the RNA-containing solutions were each mixed with 14 μL of a reverse transcription solution containing transcriptase together with dNTP, random primers and an oligodT primer. Reverse transcription was performed at 37° C. (15 min), 50° C. (5 min), and 98° C. (5 min), to give total cDNAs. The total cDNAs were diluted 30-fold with Ultra-pure water (Invitrogen) to measure the expression levels of FL-SMN, delta7, and GAPDH. For quantitative PCR (qPCR), a PCR solution was prepared according to the instructions of the manufacturer of the THUNDERBIRD (registered trademark) Probe qPCR Mix (Toyobo life science). Five microliters of the diluted total cDNA solutions and oligo DNA standard solutions, each containing either 001-Standard FL-SMN (SEQ ID NO. 1) or 002-Standard delta7 (SEQ ID NO. 2), were each mixed with 10 μL of each of the PCR solutions containing a qPCR probe, primers, and PCR enzyme. […] The oligoDNA standard solutions were prepared as those containing either of 5×10^8, 5×10^7, 5×10^6, 5×10^5, 5×10^4, 5×10^3, 5×10^2, 5×10, 5, or 0 copies. For the oligo DNA standards, primers, and probes, oligonucleotides synthesized by Integrated DNA Technologies, Inc. (IDT) were used. […] FIGS. 3B and 3D show their detection mechanisms. The final concentrations of the primers and probes added were 0.4 μM and 0.15 μM, respectively. The qPCR was performed using the following conditions on a ViiA7 instrument (Applied Biosystems): first stage: 95° C. (1 min)→second stage: 95° C. (15 sec)→third stage: 60° C. (1 min)→40 repeated cycles of the second and third stages. The GAPDH mRNA was used as the internal control, and the commercially available 20×gene expression PCR assay (Life Technologies, 4326317E, Hs99999905_ml) and Standard GAPDH (SEQ ID NO. 7) (see FIG. 1) was used to determine the number of copies of this gene. The measurement values obtained for the samples to be measured were standardized against the respective value obtained for GAPDH.
Using the above-mentioned assays, the activities of the compounds of the Examples were evaluated. Specifically, the percentages of the FL-SMN and delta7 values obtained using DMSO without the compounds and standardized against GAPDH were set as 100% and those of the FL-SMN and delta7 values obtained at the time of administration of the compounds and standardized against GAPDH were calculated. […]

Row | Structure (SMILES) | Percentage of increase (FL-SMN mRNA standardized against GAPDH, DMSO control set as 100%)
1 | Cc1nc2c(F)cc(-c3ccc4c(=O)n(C5CCN(C6CC6)CC5)cnc4c3)cc2o1 [Example 34, 3-(1-cyclopropylpiperidin-4-yl)-7-(4-fluoro-2-methyl-1,3-benzoxazol-6-yl)quinazolin-4(3H)-one] | **** (equal to or higher than 180%)
2 | Cc1nc2c(F)cc(-c3ccc4nc(C5CCN(C6CC6)CC5)[nH]c(=O)c4c3)cc2o1 [Example 27, 2-(1-cyclopropylpiperidin-4-yl)-6-(4-fluoro-2-methyl-1,3-benzoxazol-6-yl)quinazolin-4(3H)-one] | **** (equal to or higher than 180%)
3 | Cc1cn2nc(-c3nc4ccc(N5CCN6CCC[C@H]6C5)cc4c(=O)[nH]3)cc2c(C)n1 [Example 121, (S)-2-(4,6-dimethylpyrazolo[1,5-a]pyrazin-2-yl)-6-(hexahydropyrrolo[1,2-a]pyrazin-2(1H)-yl)quinazolin-4(3H)-one bistrifluoroacetate] | **** (equal to or higher than 180%)
4 | Cc1nc2c(F)cc(-c3ccc4c(=O)n(C5CCN(C)CC5)cnc4c3)cc2o1 [Example 29, 7-(4-fluoro-2-methyl-1,3-benzoxazol-6-yl)-3-(1-methylpiperidin-4-yl)quinazolin-4(3H)-one] | **** (equal to or higher than 180%)
5 | Cc1cn2cc(-c3ccc4nc(C5CCN(C)CC5)[nH]c(=O)c4c3)cc(C(F)(F)F)c2n1 [Example 75, 2-(1-methylpiperidin-4-yl)-6-[2-methyl-8-(trifluoromethyl)imidazo [1,2-a]pyridin-6-yl]quinazolin-4(3H)-one] | ** (equal to or higher than 120% but lower than 150%)
6 | CN1CCN(c2ccc3nc(C4=NOC5(CCN(C)CC5)C4)[nH]c(=O)c3c2)CC1 [Example 42, 2-(8-methyl-1-oxa-2,8-diazaspiro[4.5]dec-2-en-3-yl)-6-(4-methylpiperazin-1-yl)quinazolin-4(3H)-one] | * (equal to or higher than 100% but lower than 120%)
7 | COc1cccc(-c2nc3ccc(C4CCN(C)CC4)cc3c(=O)[nH]2)c1F [Example 47, 2-(2-fluoro-3-methoxyphenyl)-6-(1-methylpiperidin-4-yl)quinazolin-4(3H)-one] | * (equal to or higher than 100% but lower than 120%)
8 | Cc1cn2cc(-c3nc4cc(F)c(N5CCN(C)CC5)cc4c(=O)[nH]3)cc(C)c2n1 [Example 57, 2-(2,8-dimethylimidazo[1,2-a]pyridin-6-yl)-7-fluoro-6-(4-methylpiperazin-1 - yl)quinazolin-4(3H)-one] | ** (equal to or higher than 120% but lower than 150%)
9 | Cc1cn2nc(-c3nc4ccc(N5CCN6CCCCC6C5)cc4c(=O)[nH]3)cc2c(C)n1 (stereo not drawn) [Example 124, 2-(4,6-dimethylpyrazolo[1,5-a]pyrazin-2-yl)-6-(octahydro-2H-pyrido[1,2-a]pyrazin-2-yl)quinazolin-4(3H)-one] | *** (equal to or higher than 150% but lower than 180%)
10 | Cc1cn2cc(-c3nc4ccc(N5CCN(C)CC5)cc4c(=O)[nH]3)cc2c(C)n1 [Example 64, 2-(1,3-dimethylpyrrolo[1,2-a]pyrazin-7-yl)-6-(4-methylpiperazin-1-yl)quinazolin-4(3H)-one] | * (equal to or higher than 100% but lower than 120%)
11 | Cc1cn2nc(-c3nc4ccc(N5CCNC6(CC6)C5)cc4c(=O)[nH]3)cc2c(C)n1 [Example 123, 2-(4,6-dimethylpyrazolo[1,5-a]pyrazin-2-yl)-6-(4,7-diazaspiro[2.5Joctan-7-yl)quinazolin-4(3H)-one bistrifluoroacetate] | **** (equal to or higher than 180%)
12 | Cc1cn2cc(-c3ccc4nc(C5(F)CCN(C6CC6)CC5)[nH]c(=O)c4c3)cc(F)c2n1 [Example 85, 2-(4-fluoro-1-cyclopropylpiperidin-4-yl)-6-(8-fluoro-2-methylimidazo[1,2-a]pyridin-6-yl)quinazolin-4(3H)-one] | **** (equal to or higher than 180%)
13 | Cc1cn2nc(-c3nc4ccc(N5CCN(C6CC6)CC5)cc4c(=O)[nH]3)ccc2n1 [Example 118, 6-(4-cyclopropylpiperazin-1-yl)-2-(2-methylimidazo[1,2-b]pyridazin-6-yl)quinazolin-4(3H)-one] | *** (equal to or higher than 150% but lower than 180%)
14 | Cc1cn2cc(-c3nc4ccc(N5CCN(C)CC5)cc4c(=O)[nH]3)cc(F)c2n1 [Example 53, 2-(8-fluoro-2-methylimidazo[1,2-a]pyridin-6-yl)-6-(4-methylpiperazin-1-yl)quinazolin-4(3H)-one] | ** (equal to or higher than 120% but lower than 150%)
15 | Cc1cn2cc(-c3ccc4nc(C5CCN(C)CC5)[nH]c(=O)c4c3)cc(Cl)c2n1 [Example 17, 6-(8-Chloro-2-methylimidazo[1,2-α]pyridin-6-yl)-2-(1-methylpiperidin-4-yl)quinazolin-4(3H)-one] | *** (equal to or higher than 150% but lower than 180%)
16 | Cc1cc2nc(-c3nc4ccc(N5CCN(C6CC6)CC5)cc4c(=O)[nH]3)cn2c(C)n1 [Example 117, 6-(4-cyclopropylpiperazin-1-yl)-2-(5,7-dimethylimidazo[1,2-c]pyrimidin-2-yl)quinazolin-4(3H)-one] | **** (equal to or higher than 180%)
17 | Cc1cn2cc(-c3ccc4nc(C5(C)CCN(C)CC5)[nH]c(=O)c4c3)ccc2n1 [Example 84, 2-(1,4-dimethylpiperidin-4-yl)-6-(2-methylimidazo[1,2-a]pyridin-6-yl)quinazolin-4(3H)-one] | * (equal to or higher than 100% but lower than 120%)
18 | Cc1cn2cc(-c3ccc4nc(C5CCN(C6CC6)CC5)[nH]c(=O)c4c3)cc2cn1 [Example 32, 2-(1-cyclopropylpiperidin-4-yl)-6-(3-methylpyrrolo[1,2-a]pyrazin-7-yl)quinazolin-4(3H)-one] | **** (equal to or higher than 180%)
19 | Cc1cn2nc(-c3nc4ccc(N5CCN(CC6CC6)CC5)cc4c(=O)[nH]3)cc2c(C)n1 [Example 120, 6-[4-(cyclopropyImethyl)piperazin-1-yl]-2-(4,6-dimethylpyrazolo[1,5-a]pyrazin-2-yl)quinazolin-4(3H)-one bistrifluoroacetate] | **** (equal to or higher than 180%)
20 | CCN1CCN(c2ccc3nc(-c4cc5c(C)nc(C)cn5n4)[nH]c(=O)c3c2)CC1 [Example 12, 2-(4,6-Dimethylpyrazolo[1,5-a]pyrazin-2-yl)-6-(4-ethylpiperazin-1-yl)quinazolin-4(3H)-one] | **** (equal to or higher than 180%)
21 | Cc1cn2nc(-c3nc4ccc(N5CCN(C6CC6)CC5)cc4c(=O)[nH]3)cc2c(C)n1 [Example 36, 6-(4-cyclopropylpiperazin-1-yl)-2-(4,6-dimethylpyrazolo[1,5-a]pyrazin-2-yl)quinazolin-4(3H)-one] | **** (equal to or higher than 180%)
